In brackets after ≈: the same amount, converted by molar mass. Where two headings read alike, the source gives them in different places.
Tests used:
Format in all cases: cell-based
[1] = test system: 100 A. baumannii strains (50 MDR, 50 non-MDR); experiment: MIC broth microdilution at IHMA Europe, panel of 100 strains; conditions: for MIC / MIC50 / MIC90: Acinetobacter baumannii; for MIC50: read-out: MIC 50; for MIC90: read-out: MIC 90
[2] = test system: P. aeruginosa ATCC 27853; experiment: IHMA QC MIC
[3] = test system: A. baumannii ATCC 17978; experiment: IHMA QC MIC
Procedure: (§1) The panel of Hungarian clinical isolates and controls measured following the same method as detailed above, and albeit measurements were carried out in 384-well microtiter plates (Corning Inc.).

[4] = test system: E. coli ATCC 35218; experiment: IHMA QC MIC; conditions: Escherichia coli, ATCC35218; read-out: MIC (QC, repeated tests)
Procedure: as §1

MIC ([1]; A. baumannii IHMA 2156634, Turkey 2020, MDR, read-out: MIC): 4 µg/mL (≈ 6.83 µM) | MIC ([1]; A. baumannii IHMA 2156709, Turkey 2020, MDR, read-out: MIC): 4 µg/mL (≈ 6.83 µM) | MIC ([1]; A. baumannii IHMA 2157614, Australia 2020, Non-MDR, read-out: MIC): 0.25 µg/mL (≈ 0.427 µM) | MIC ([1]; A. baumannii IHMA 2177232, Lithuania 2020, MDR, read-out: MIC): 8 µg/mL (≈ 13.7 µM) | MIC ([1]; A. baumannii IHMA 2177489, Lithuania 2020, MDR, read-out: MIC): 4 µg/mL (≈ 6.83 µM) | MIC ([1]; A. baumannii IHMA 2178574, Ukraine 2020, Non-MDR, read-out: MIC): 0.25 µg/mL (≈ 0.427 µM) | MIC ([1]; A. baumannii IHMA 2180134, Malaysia 2020, Non-MDR, read-out: MIC): 0.25 µg/mL (≈ 0.427 µM) | MIC ([1]; A. baumannii IHMA 2180142, Malaysia 2020, MDR, read-out: MIC): 2 µg/mL (≈ 3.41 µM) | MIC ([1]; A. baumannii IHMA 2181370, Morocco 2020, MDR, read-out: MIC): 1 µg/mL (≈ 1.71 µM) | MIC ([1]; A. baumannii IHMA 2183729, Argentina 2020, MDR, read-out: MIC): 1 µg/mL (≈ 1.71 µM) | MIC ([1]; A. baumannii IHMA 2183849, Argentina 2020, Non-MDR, read-out: MIC): 0.25 µg/mL (≈ 0.427 µM) | MIC ([1]; A. baumannii IHMA 2184382, Japan 2020, Non-MDR, read-out: MIC): 0.12 µg/mL (≈ 0.205 µM) | MIC ([1]; A. baumannii IHMA 2193375, Venezuela 2020, MDR, read-out: MIC): 1 µg/mL (≈ 1.71 µM) | MIC ([1]; A. baumannii IHMA 2193485, Venezuela 2020, Non-MDR, read-out: MIC): 0.12 µg/mL (≈ 0.205 µM) | MIC ([1]; A. baumannii IHMA 2193607, Venezuela 2020, MDR, read-out: MIC): 0.5 µg/mL (≈ 0.854 µM) | MIC ([1]; A. baumannii IHMA 2195460, Italy 2020, MDR, read-out: MIC): 1 µg/mL (≈ 1.71 µM) | MIC ([1]; A. baumannii IHMA 2196914, South Africa 2020, MDR, read-out: MIC): 4 µg/mL (≈ 6.83 µM) | MIC ([1]; A. baumannii IHMA 2196959, South Africa 2020, MDR, read-out: MIC): 2 µg/mL (≈ 3.41 µM) | MIC ([1]; A. baumannii IHMA 2203763, Spain 2020, MDR, read-out: MIC): 2 µg/mL (≈ 3.41 µM) | MIC ([1]; A. baumannii IHMA 2205144, Korea, South 2020, MDR, read-out: MIC): 2 µg/mL (≈ 3.41 µM) | MIC ([1]; A. baumannii IHMA 2206459, Taiwan 2020, MDR, read-out: MIC): 2 µg/mL (≈ 3.41 µM) | MIC ([1]; A. baumannii IHMA 2206507, Taiwan 2020, Non-MDR, read-out: MIC): 0.12 µg/mL (≈ 0.205 µM) | MIC ([1]; A. baumannii IHMA 2212575, Hungary 2020, Non-MDR, read-out: MIC): 0.5 µg/mL (≈ 0.854 µM) | MIC ([1]; A. baumannii IHMA 2215307, Hong Kong 2020, Non-MDR, read-out: MIC): 0.25 µg/mL (≈ 0.427 µM) | MIC ([1]; A. baumannii IHMA 2216586, Taiwan 2020, MDR, read-out: MIC): 2 µg/mL (≈ 3.41 µM) | MIC ([1]; A. baumannii IHMA 2223200, Colombia 2020, Non-MDR, read-out: MIC): 0.25 µg/mL (≈ 0.427 µM) | MIC ([1]; A. baumannii IHMA 2224017, Panama 2020, MDR, read-out: MIC): 2 µg/mL (≈ 3.41 µM) | MIC ([1]; A. baumannii IHMA 2224303, Panama 2020, Non-MDR, read-out: MIC): 0.5 µg/mL (≈ 0.854 µM) | MIC ([1]; A. baumannii IHMA 2231797, Greece 2020, MDR, read-out: MIC): 4 µg/mL (≈ 6.83 µM) | MIC ([1]; A. baumannii IHMA 2233099, Guatemala 2020, MDR, read-out: MIC): 2 µg/mL (≈ 3.41 µM) | MIC ([1]; A. baumannii IHMA 2233430, Kazakhstan 2020, MDR, read-out: MIC): 4 µg/mL (≈ 6.83 µM) | MIC ([1]; A. baumannii IHMA 2233548, Kazakhstan 2020, Non-MDR, read-out: MIC): 0.12 µg/mL (≈ 0.205 µM) | MIC ([1]; A. baumannii IHMA 2238964, Thailand 2020, MDR, read-out: MIC): 1 µg/mL (≈ 1.71 µM) | MIC ([1]; A. baumannii IHMA 2239052, Thailand 2020, Non-MDR, read-out: MIC): 0.12 µg/mL (≈ 0.205 µM) | MIC ([1]; A. baumannii IHMA 2261047, Belgium 2020, MDR, read-out: MIC): 1 µg/mL (≈ 1.71 µM) | MIC ([1]; A. baumannii IHMA 2261633, Canada 2020, Non-MDR, read-out: MIC): 0.25 µg/mL (≈ 0.427 µM) | MIC ([1]; A. baumannii IHMA 2274234, South Africa 2020, MDR, read-out: MIC): 2 µg/mL (≈ 3.41 µM) | MIC ([1]; A. baumannii IHMA 2274364, South Africa 2020, MDR, read-out: MIC): 4 µg/mL (≈ 6.83 µM) | MIC ([1]; A. baumannii IHMA 2275237, Chile 2020, Non-MDR, read-out: MIC): 0.12 µg/mL (≈ 0.205 µM) | MIC ([1]; A. baumannii IHMA 2275751, Jordan 2020, MDR, read-out: MIC): 2 µg/mL (≈ 3.41 µM) | MIC ([1]; A. baumannii IHMA 2316205, United States 2020, MDR, read-out: MIC): 4 µg/mL (≈ 6.83 µM) | MIC ([1]; MDR n = 50, read-out: MAX (maximum MIC; all strains inhibited)): 8 µg/mL (≈ 13.7 µM) | MIC50 ([1]; MDR n = 50): 2 µg/mL (≈ 3.41 µM) | MIC90 ([1]; MDR n = 50): 4 µg/mL (≈ 6.83 µM) | MIC ([1]; MDR n = 50, read-out: MIN (minimum MIC)): 0.5 µg/mL (≈ 0.854 µM) | MIC ([1]; all isolates n = 100, read-out: MAX (maximum MIC; all strains inhibited)): 8 µg/mL (≈ 13.7 µM) | MIC50 ([1]; all isolates n = 100): 0.5 µg/mL (≈ 0.854 µM) | MIC90 ([1]; all isolates n = 100): 4 µg/mL (≈ 6.83 µM) | MIC ([1]; all isolates n = 100, read-out: MIN (minimum MIC)): 0.06 µg/mL (≈ 0.102 µM) | MIC ([1]; non-MDR n = 50, read-out: MAX (maximum MIC)): 4 µg/mL (≈ 6.83 µM) | MIC50 ([1]; non-MDR n = 50): 0.25 µg/mL (≈ 0.427 µM) | MIC90 ([1]; non-MDR n = 50): 0.5 µg/mL (≈ 0.854 µM) | MIC ([1]; non-MDR n = 50, read-out: MIN (minimum MIC)): 0.06 µg/mL (≈ 0.102 µM) | MAX (maximum MIC; all strains inhibited) ([1]; MDR n = 50): 8 µg/mL | MAX (maximum MIC; all strains inhibited) ([1]; all isolates n = 100): 8 µg/mL | MIC (QC, repeated tests) [2]: 4 µg/mL (≈ 6.83 µM) | MIC ([2]; Pseudomonas aeruginosa, ATCC27853, read-out: MIC (QC, repeated tests)): 8 µg/mL (≈ 13.7 µM) | MIC (QC, repeated tests) [3]: 0.5 µg/mL (≈ 0.854 µM) | MIC ([3]; Acinetobacter baumannii, ATCC17978, read-out: MIC (QC, repeated tests)): 0.25 µg/mL (≈ 0.427 µM) | MIC [4]: 0.12 µg/mL (≈ 0.205 µM)
Structure (SMILES): CN(C)c1cc(NC(=O)CNC(C)(C)C)c(O)c2c1C[C@H]1C[C@H]3[C@H](N(C)C)C(O)=C(C(N)=O)C(=O)[C@@]3(O)C(O)=C1C2=O [Tigecycline, tigecycline]

From publication PMC10041525, “New Dual Inhibitors of Bacterial Topoisomerases with Broad-Spectrum Antibacterial Activity and In Vivo Efficacy against Vancomycin-Intermediate Staphylococcus aureus” (Journal of Medicinal Chemistry, 2023)
